The compounds below were run on P. falciparum 3D7 growth, pLDH absorbance (assay: P. falciparum 3D7 growth inhibition, dose response, strain 3D7 (AID 2305)).
Work on `COc1cc(NC(=O)CCCCCCCCN2CCN(C)CC2)c2ncccc2c1` yielded an IC50 of 890 nM.
For `Cc1cnc(-c2ccc(NC(=O)c3coc4ccc(N5C[C@@H](C)N(C)[C@@H](C)C5)cc34)cc2)o1`, the IC50 was 650 nM.
`COCCN(C)c1ccc(C(=O)Nc2ccccc2)cc1NS(=O)(=O)Cc1ccccc1` showed an IC50 of 570 nM.
Work on `Cc1ccc2[nH]c(-c3ccc(C(=O)NCc4ccc(Cl)c(Cl)c4)cc3)nc2c1C` yielded an IC50 of 790 nM.
Work on `CCc1ccccc1N1CCN(CCCC(=O)c2ccc(NC(=O)c3ccc(Cl)cc3)cc2)CC1` yielded an IC50 of 1310 nM.
With `CN(C)CCCNCCS(=O)(=O)c1cccc(Nc2ccc(-c3cccc(N(C)C)c3)cn2)c1` the IC50 was 860 nM.
`O=C(Nc1cccc(OC2CCN(Cc3ccccc3)CC2)c1)c1ccc(Cl)c(Cl)c1` showed an IC50 of 720 nM.
Compound `COc1cccc(NC(=O)N2CCOC(CCN3CCC4(CCc5ccccc54)CC3)(c3ccc(Cl)c(Cl)c3)C2)c1` (configuration not stated) has an IC50 of 1010 nM.
Work on `CCCCCOc1ccc(NC2=CC(=O)C(=O)c3ccccc32)cc1` yielded an IC50 of 240 nM.
In the case of `c1ccc(Oc2ccc(Nc3ccnc4cc(-c5csc(CN6CCCCC6)n5)ccc34)cc2)nc1`, the IC50 is reported as 580 nM.
`Cc1nc2ccccc2n1C1C[C@H]2CC[C@@H](C1)N2CCCC1(c2ccccc2)CCN(C(=O)OCc2ccccc2)CC1` (some centres not stated) was tested, and the IC50 was 1000 nM.
`O=C(/C=C/c1ccc(Cl)c(Cl)c1)NCCCCCN1CCC(NC(=S)Nc2ccc(Cl)cc2Cl)CC1` was tested, and the IC50 was 740 nM.
`COc1cccc(NC(=O)Nc2cc(C)nc3ccccc23)c1` showed an IC50 of 720 nM.
`CCOc1ccc(-c2nonc2NC(=O)c2ccc(OC(C)C)cc2)cc1OCC` showed an IC50 of 600 nM.
`O=C(Nc1ccc(Cl)cc1)Nc1cccc(-c2ccc(-c3nc4ccccc4[nH]3)cc2)c1` gave an IC50 of 930 nM.
`CC(=O)Nc1ccc(C(=O)Nc2ccc(-c3cccc(-c4nc5ccc(C(F)(F)F)cc5[nH]4)c3)cc2)cn1` was tested, and the IC50 was 110 nM.
In the case of `CCOC(=O)c1ccc(NC(=O)NC2CCN(CCCCCNC(=O)/C=C/c3ccc(Cl)c(Cl)c3)C2)cc1` (configuration not stated), the IC50 is reported as 490 nM.
Compound `C[C@@H]1CN(CCCn2c3ccccc3c3ccc(C(=O)CCCN(C)C)cc32)C[C@H](C)N1` has an IC50 of 810 nM.
For `O=C(/C=C/c1ccc(Cl)c(Cl)c1)NCCCCCN1CC[C@H](NC(=O)c2sc3ccccc3c2Cl)C1`, the IC50 was 810 nM.
For `CCOC(=O)C(CO)NC(=O)c1ccc([N+](=O)[O-])o1` (configuration not stated), the IC50 was 290 nM.
`Cc1cccc2[nH]c(-c3cccc(-c4cccc(NC(=O)Cc5cnc[nH]5)c4)c3)nc12` was tested, and the IC50 was 670 nM.
`CN1CCN(Cc2cccc(-c3cc4nccc(Nc5ccc(Oc6ccccc6)cc5)c4cc3Cl)c2)CC1` gave an IC50 of 730 nM.
`CCNc1cc(C(=O)N[C@@H](Cc2ccccc2)[C@H](O)CNCc2cccc(-n3ccnc3)c2)cc(N2CCCC2=O)c1` gave an IC50 of 630 nM.
`COc1cc2nc(N3CCC(CNC(=O)c4ccc(-c5ccc(-c6noc(C)n6)cc5C)cc4)CC3)nc(N)c2cc1OC` showed an IC50 of 220 nM.
Compound `O=C(NCc1cccc(C(F)(F)F)c1)C1CCCN(C(=O)c2ccc(O)c(-c3ccc(Cl)c(Cl)c3)c2)C1` (configuration not stated) has an IC50 of 800 nM.
For `CCCCOc1c(CCC)cc(Cc2cnc(N)nc2N)cc1CCC`, the IC50 was 630 nM.
With `N=C(N)c1cc(Br)cc(NC(=O)Nc2cc(Br)cc(C(=N)N)c2)c1` the IC50 was 820 nM.
`Cc1cc(Br)cnc1CCCCNc1cc(=O)c2ccccc2[nH]1` was tested, and the IC50 was 1160 nM.
With `COC(=O)c1ccc(CC(C)NCC(O)c2cccc(Oc3cccc(C(F)(F)F)c3)c2)cc1` (configuration not stated) the IC50 was 1170 nM.
With `CN(C)CCCn1c(N)c(-c2nc3ccccc3[nH]2)c2nc(C#N)c(C#N)nc21` the IC50 was 590 nM.
`O=C(Nc1cccc(-c2ccc(-c3nc4ccc(C(F)(F)F)cc4[nH]3)s2)c1)c1ccncc1` gave an IC50 of 680 nM.
Work on `CSc1ccc(CN2CCC(NC(=O)c3ccc(-c4cccc(C(F)(F)F)c4)s3)CC2)cc1` yielded an IC50 of 1220 nM.
Work on `CCOc1cccc(C(=O)Nc2nonc2-c2ccc(OC)c(OC)c2)c1` yielded an IC50 of 1020 nM.
Work on `O=C(Nc1ccc(-c2cccc(-c3nc4ccc(F)cc4[nH]3)c2)cc1)c1ccncc1` yielded an IC50 of 720 nM.
`COc1cc2nc(NCC3CCCCC3)nc(NCc3ccccc3)c2cc1OC` was tested, and the IC50 was 140 nM.
With `Cc1cc(N[C@@H](Cc2ccccc2)C(=O)NCCOc2ccccc2)nc(NCCc2ccccn2)n1` the IC50 was 1520 nM.
With `CC(=O)Nc1ncc(C(=O)Nc2cccc(-c3cccc(-c4nc5ccccc5[nH]4)c3)c2)s1` the IC50 was 810 nM.
Work on `COc1ccc2nccc([C@@H](O)CN3CCC(NCC(O)Cc4ccccc4)CC3)c2c1` (some centres not stated) yielded an IC50 of 670 nM.
For `O=C(c1ccccc1N=Nc1c(-c2ccccc2)[nH]n(-c2ccccc2)c1=O)N1CCOCC1`, the IC50 was 350 nM.
`Cn1cncc1C(=O)Nc1ccc(-c2ccc(-c3nc4ccc(C(F)(F)F)cc4[nH]3)cc2)cc1` gave an IC50 of 560 nM.
Work on `CC(C)(C)NS(=O)(=O)c1cc(C(=O)N2CCC(CCN3CCC(C(=O)c4ccc(F)cc4)CC3)(c3cccc(F)c3)CC2)c(Cl)cc1F` yielded an IC50 of 750 nM.
`CCC[C@@H]([C@@H](CC1CCCCC1)C(=O)N[C@H](C(=O)Nc1nccs1)C(C)(C)SCCNC(=O)OCC)N(O)C=O` showed an IC50 of 80 nM.
In the case of `Cc1sc(NC(=O)c2ccc([N+](=O)[O-])cc2Cl)c(C(N)=O)c1C`, the IC50 is reported as 930 nM.
`Cc1cc2nc(-c3ccc(/C=C/C(=O)NC4CCCCC4)cc3)[nH]c2cc1C` showed an IC50 of 1010 nM.
`COCCN(C(=O)Cc1cccs1)C(C(=O)NCc1ccc(OC)cc1)c1ccc(C(C)C)cc1` (configuration not stated) gave an IC50 of 840 nM.
Work on `N#Cc1ccc2c(c1)CCN(CCC1CCC(NC(=O)/C=C/c3c[nH]c4c(Br)cccc34)CC1)CC2` (configuration not stated) yielded an IC50 of 380 nM.
In the case of `CCOc1ccc(-c2nonc2NC(=O)c2ccc(Cl)cc2)cc1OCC`, the IC50 is reported as 990 nM.

Reference: PubChem BioAssay AID2305 (GlaxoSmithKline (GSK), 2010)
